*1 amine or outer side, *2 acyl side, *3 side chain or, on linkers, in order; H or OH if unused. Where a SMILES comes first, the peptide text is derived from it. Side-chain parts run from the residue outwards. The star is where a group is joined. C18 diacid = O=C(O)CCCCCCCCCCCCCCCCC(=O)*; γGlu = O=C(O)[C@H](CCC(=O)[*:2])N[*:1]; Isovaleryl = CC(C)CC(=O)*; Ahx = NCCCCCC(=O)O
Experiments:
[1] = biological target: T1, human NPY5 receptor (hY5R) (Homo sapiens, UniProt Q15761); assay: HTRF cAMP Gi assay, hY5R
T1 sequence (Q15761 1-445): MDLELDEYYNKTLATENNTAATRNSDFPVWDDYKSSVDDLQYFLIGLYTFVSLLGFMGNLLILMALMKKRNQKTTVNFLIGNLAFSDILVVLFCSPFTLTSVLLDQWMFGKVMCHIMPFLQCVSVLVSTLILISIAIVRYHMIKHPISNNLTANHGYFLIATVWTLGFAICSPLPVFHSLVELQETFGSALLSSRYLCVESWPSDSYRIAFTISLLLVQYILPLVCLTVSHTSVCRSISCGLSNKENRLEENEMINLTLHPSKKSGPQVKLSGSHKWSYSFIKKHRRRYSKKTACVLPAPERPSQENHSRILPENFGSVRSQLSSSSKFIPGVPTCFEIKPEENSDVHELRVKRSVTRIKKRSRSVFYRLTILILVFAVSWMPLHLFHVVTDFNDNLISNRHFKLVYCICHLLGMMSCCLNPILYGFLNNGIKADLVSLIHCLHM
Procedure: Briefly, the production of intracellular cAMP will generate a competition between unlabeled cAMP and exogenously added d2-cAMP for anti-cAMP antibodies conjugated to cryptate. CHO-K1 cells stably expressing the human NPY1, NPY2, NPY4 and NPY5 receptors were used with the cells brought to life from a frozen stock immediately before assay performance. 2000 cells per well were applied for all four NPY receptor subtype assays. A 384-well format was used applying a total volume of 20 μl using 5 μl cells, 2.5 μl peptide agonist, 2.5 μl forskolin and 5 μl of each of the fluorophores. […] Concentration-response evaluation of compounds was performed with 11 concentrations of agonist peptides (covering 3 decades). EC50 values were calculated by nonlinear regression using sigmoid concentration-response with variable slope.

[2] = biological target: T2, human NPY1 receptor (hY1R) (Homo sapiens, UniProt P25929); assay: HTRF cAMP Gi assay, hY1R; format: cell-based; settings: CHO-K1 cells
T2 construct: expressed in transfected cells; host or cells: CHO-K1
T2 sequence (P25929 1-384): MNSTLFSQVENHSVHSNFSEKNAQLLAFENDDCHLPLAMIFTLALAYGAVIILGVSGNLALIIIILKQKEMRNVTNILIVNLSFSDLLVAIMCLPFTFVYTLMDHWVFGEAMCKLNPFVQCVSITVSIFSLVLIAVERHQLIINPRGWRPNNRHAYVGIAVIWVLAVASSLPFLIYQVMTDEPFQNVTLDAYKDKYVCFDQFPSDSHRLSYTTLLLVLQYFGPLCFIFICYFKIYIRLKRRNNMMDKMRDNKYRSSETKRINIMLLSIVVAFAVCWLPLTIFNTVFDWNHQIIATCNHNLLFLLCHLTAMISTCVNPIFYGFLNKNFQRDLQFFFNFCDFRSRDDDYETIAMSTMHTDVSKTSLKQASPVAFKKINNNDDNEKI

[3] = biological target: T3, human NPY4 receptor (hY4R) (Homo sapiens, UniProt P50391); assay: HTRF cAMP Gi assay, hY4R; format: cell-based; settings: CHO-K1 cells
T3 construct: expressed in transfected cells; host or cells: CHO-K1

[4] = biological target: T4, Human Neuropeptide Y2 Receptor (Homo sapiens, UniProt P49146); assay: Radioligand binding competition assay (RLB); settings: Table 3, 125I-PYY(1-36) competition; read-out: Ki
T4 construct: purchased CHEMICON HTS066M
T4 sequence (P49146 1-381): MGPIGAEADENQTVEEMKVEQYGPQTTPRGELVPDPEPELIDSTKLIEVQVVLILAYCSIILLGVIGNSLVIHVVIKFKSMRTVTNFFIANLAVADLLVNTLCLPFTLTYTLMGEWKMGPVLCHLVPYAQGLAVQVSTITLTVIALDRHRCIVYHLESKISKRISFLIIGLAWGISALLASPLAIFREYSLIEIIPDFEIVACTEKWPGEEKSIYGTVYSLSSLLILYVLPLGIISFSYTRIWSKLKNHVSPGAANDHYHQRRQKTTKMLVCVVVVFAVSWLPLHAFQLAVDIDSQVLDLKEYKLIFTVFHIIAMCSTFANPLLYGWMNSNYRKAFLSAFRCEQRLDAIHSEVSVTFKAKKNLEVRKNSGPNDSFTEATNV
Outline: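 Filtration competition binding on membranes from cells expressing the receptor, 0.5 μg protein/well, in 50 mM HEPES, 5 mM MgCl2, 1 mM CaCl2, pH 7.4, with 0.2% ovalbumin. Incubation ran 2 h at room temperature, followed by GF/C filtration and scintillation counting. IC50 came from nonlinear sigmoidal fits.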

Solubility determination = settings: for Sol6: pH 6; for Sol7: pH 7
Outline: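 Solubility is derived from the ratio of reversed-phase peak areas, filtered sample over a control dissolved at 1 mg/ml in 50% acetonitrile. Peptides are agitated for 2 hours at room temperature in 0.1 M sodium diphosphate at pH 6.4 or 7.0, aiming at 10 mg/ml.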

T3 sequence (P50391 whole entry): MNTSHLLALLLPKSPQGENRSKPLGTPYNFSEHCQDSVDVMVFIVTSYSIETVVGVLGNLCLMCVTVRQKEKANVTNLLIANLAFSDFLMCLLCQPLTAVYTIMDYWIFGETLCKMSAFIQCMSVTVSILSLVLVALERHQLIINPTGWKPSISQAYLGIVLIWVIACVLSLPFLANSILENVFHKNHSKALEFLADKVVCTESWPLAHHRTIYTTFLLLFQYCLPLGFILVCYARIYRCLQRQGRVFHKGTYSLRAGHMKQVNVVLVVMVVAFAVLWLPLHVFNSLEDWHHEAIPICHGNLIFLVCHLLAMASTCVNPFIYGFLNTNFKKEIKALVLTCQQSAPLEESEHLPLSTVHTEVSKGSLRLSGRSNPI

Row | Structure (SMILES) | EC50 [1] [µM] | EC50 [2] [µM] | EC50 [3] [µM] | Ki [4] [nM] | Sol6 (Solubility determination) [mg/mL] | Sol7 (Solubility determination) [mg/mL]
1 | CC[C@H](C)[C@H](NC(=O)[C@H](Cc1ccc(O)cc1)NC(=O)[C@H](Cc1ccc(O)cc1)NC(=O)[C@H](CCCNC(=N)N)NC(=O)[C@H](CCC(N)=O)NC(=O)[C@@H](NC(=O)[C@H](CCC(=O)O)NC(=O)[C@H](CCC(=O)O)NC(=O)[C@@H]1CCCN1C(=O)[C@H](CO)NC(=O)[C@H](C)NC(=O)[C@H](CC(=O)O)NC(=O)[C@H](C)NC(=O)[C@H](CCC(=O)O)NC(=O)[C@@H]1CCCN1C(=O)[C@H](CCCCNC(=O)CCCCCNC(=O)CC[C@H](NC(=O)CCCCCCCCCCCCCCCCC(=O)O)C(=O)O)NC(=O)[C@H](CCC(=O)O)NC(=O)[C@@H]1CCCN1C(=O)[C@H](C)NC(=O)CC(C)C)[C@@H](C)CC)C(=O)N[C@@H](CO)C(=O)N[C@@H](CC(C)C)C(=O)N[C@@H](CCCNC(=N)N)C(=O)N[C@@H](Cc1c[nH]cn1)C(=O)N[C@@H](Cc1ccc(O)cc1)C(=O)N[C@@H](Cc1ccc(O)cc1)C(=O)N[C@@H](CC(N)=O)C(=O)N[C@@H](Cc1c[nH]c2ccccc12)C(=O)N[C@@H](CC(C)C)C(=O)N[C@H](C(=O)N[C@@H](CCCNC(=N)N)C(=O)N[C@@H](CCC(N)=O)C(=O)N[C@@H](CCCNC(=N)N)C(=O)N[C@@H](Cc1ccc(O)cc1)C(N)=O)[C@@H](C)O [Compound 11, N{alpha-4}-(3-methylbutanoyl)-N{epsilon-7}-(6-[(4S)-4-carboxy-4-(17-carboxyheptadecanamido)butanamido]hexanoyl)[4A,7K,9E,10A,17I,18Q,22I,28Y,30W,31L]-hPYY(4-36)] (Isovaleryl-APEK([Ahx-γGlu-C18 diacid])PEADASPEEIQRYYISLRHYYNWLTRQRY-NH2) | > 5 | > 5 | > 5 | 1.4 | 8.9 | 8.7
2 | CC(C)CC(=O)N[C@@H](C)C(=O)N1CCC[C@H]1C(=O)N[C@@H](CCC(=O)O)C(=O)N[C@@H](CCCCNC(=O)CCCCCNC(=O)CC[C@H](NC(=O)CCCCCCCCCCCCCCCCC(=O)O)C(=O)O)C(=O)N1CCC[C@H]1C(=O)N[C@@H](CCC(=O)O)C(=O)N[C@@H](C)C(=O)N[C@@H](CCC(=O)O)C(=O)N[C@@H](C)C(=O)N[C@@H](CO)C(=O)N1CCC[C@H]1C(=O)N[C@@H](CCC(=O)O)C(=O)N[C@@H](CCC(=O)O)C(=O)N[C@@H](CC(C)C)C(=O)N[C@@H](CCC(N)=O)C(=O)N[C@@H](CCCNC(=N)N)C(=O)N[C@@H](Cc1ccc(O)cc1)C(=O)N[C@@H](Cc1ccc(O)cc1)C(=O)N[C@H](C(=O)N[C@@H](CO)C(=O)N[C@@H](CC(C)C)C(=O)N[C@@H](CCCNC(=N)N)C(=O)N[C@@H](Cc1c[nH]cn1)C(=O)N[C@@H](Cc1ccc(O)cc1)C(=O)N[C@@H](Cc1ccc(O)cc1)C(=O)N[C@@H](CC(N)=O)C(=O)N[C@@H](Cc1c[nH]c2ccccc12)C(=O)N[C@@H](CC(C)C)C(=O)N[C@H](C(=O)N[C@@H](CCCNC(=N)N)C(=O)N[C@@H](CCC(N)=O)C(=O)N[C@@H](CCCNC(=N)N)C(=O)N[C@@H](Cc1ccc(O)cc1)C(N)=O)[C@@H](C)O)C(C)C [Compound 122, N{alpha-4}-(3-methylbutanoyl)-N{epsilon-7}-(6-[(4S)-4-carboxy-4-(17-carboxyheptadecanamido)butanamido]hexanoyl)-[4A,7K,9E,10A,11E,18Q,22V,28Y,30W,31L]-hPYY(4-36)] | > 5 | > 5 | > 5 | – | 9.8 | 9.9
3 | CC[C@H](C)[C@H](NC(=O)[C@H](CCC(=O)O)NC(=O)[C@H](CCC(=O)O)NC(=O)[C@@H]1CCCN1C(=O)[C@H](CO)NC(=O)[C@H](C)NC(=O)[C@H](CC(=O)O)NC(=O)[C@H](CCC(=O)O)NC(=O)[C@@H]1CCCN1C(=O)[C@@H]1CCCN1C(=O)[C@H](CCCCNC(=O)CCCCCNC(=O)CC[C@H](NC(=O)CCCCCCCCCCCCCCCCC(=O)O)C(=O)O)NC(=O)[C@H](CCC(=O)O)NC(=O)[C@@H]1CCCN1C(=O)[C@H](C)NC(=O)CC(C)C)C(=O)N[C@@H](CCC(N)=O)C(=O)N[C@@H](CCCNC(=N)N)C(=O)N[C@@H](Cc1ccc(O)cc1)C(=O)N[C@@H](Cc1ccc(O)cc1)C(=O)N[C@H](C(=O)N[C@@H](CO)C(=O)N[C@@H](CC(C)C)C(=O)N[C@@H](CCCNC(=N)N)C(=O)N[C@@H](Cc1c[nH]cn1)C(=O)N[C@@H](Cc1ccc(O)cc1)C(=O)N[C@@H](Cc1ccc(O)cc1)C(=O)N[C@@H](CC(N)=O)C(=O)N[C@@H](Cc1c[nH]c2ccccc12)C(=O)N[C@@H](CC(C)C)C(=O)N[C@H](C(=O)N[C@@H](CCCNC(=N)N)C(=O)N[C@@H](CCC(N)=O)C(=O)N[C@@H](CCCNC(=N)N)C(=O)N[C@@H](Cc1ccc(O)cc1)C(N)=O)[C@@H](C)O)C(C)C [Compound 172, N{alpha-4}-(3-methylbutanoyl)-N{epsilon-7}-(6-[(4S)-4-carboxy-4-(17-carboxyheptadecanamido)butanamido]hexanoyl)-[4A,7K,9P,17I,18Q,22V,28Y,30W,31L]-hPYY(4-36)] | > 5 | – | – | 0.81 | 10.0 | >10.0
4 | CC[C@H](C)[C@H](NC(=O)[C@H](CCC(=O)O)NC(=O)[C@H](CCC(=O)O)NC(=O)[C@@H]1CCCN1C(=O)[C@H](CO)NC(=O)[C@H](C)NC(=O)[C@H](CC(=O)O)NC(=O)[C@H](CCC(=O)O)NC(=O)[C@H](CCC(=O)O)NC(=O)[C@H](C)NC(=O)[C@H](CCCCNC(=O)CCCCCNC(=O)CC[C@H](NC(=O)CCCCCCCCCCCCCCCCC(=O)O)C(=O)O)NC(=O)[C@H](CCC(=O)O)NC(=O)[C@@H]1CCCN1C(=O)[C@H](C)NC(=O)CC(C)C)C(=O)N[C@@H](CCC(N)=O)C(=O)N[C@@H](CCCNC(=N)N)C(=O)N[C@@H](Cc1ccc(O)cc1)C(=O)N[C@@H](Cc1ccc(O)cc1)C(=O)N[C@H](C(=O)N[C@@H](CO)C(=O)N[C@@H](CC(C)C)C(=O)N[C@@H](CCCNC(=N)N)C(=O)N[C@@H](Cc1c[nH]cn1)C(=O)N[C@@H](Cc1ccc(O)cc1)C(=O)N[C@@H](Cc1ccc(O)cc1)C(=O)N[C@@H](CC(N)=O)C(=O)N[C@@H](Cc1c[nH]c2ccccc12)C(=O)N[C@@H](CC(C)C)C(=O)N[C@H](C(=O)N[C@@H](CCCNC(=N)N)C(=O)N[C@@H](CCC(N)=O)C(=O)N[C@@H](CCCNC(=N)N)C(=O)N[C@@H](Cc1ccc(O)cc1)C(N)=O)[C@@H](C)O)C(C)C [Compound 183, N{alpha-4}-(3-methylbutanoyl)-N{epsilon-7}-(6-[(4S)-4-carboxy-4-(17-carboxyheptadecanamido)butanamido]hexanoyl)-[4A,7K,8A,9E,17I,18Q,22V,28Y,30W,31L]-hPYY(4-36)] | > 5 | – | – | 18.8 | 8.4 | 8.7

Reference: patent US12391737B2, “Soluble NPY2 receptor agonists” (Boehringer Ingelheim International GmbH, priority 2020, dated 2025)
